From US8815909B2, “Diaminocyclohexane compounds and uses thereof” (Bristol-Myers Squibb Company, priority 2011, dated 2014)

Biological target: T1, human Y4 receptor (Homo sapiens, UniProt P50391)
T1 construct: expressed in transfected cells
Test: NPY4 cAMP HTRF Agonist Assay (inhibitory cAMP assay, Gi activation by Y4 agonism)
Type: cell-based
Conditions: TABLE 2, R2 is Phenyl-CN; read-out: hY4 CAMP EC50
Outline: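 Y4 agonism read as lowered forskolin-stimulated cAMP (HTRF, 1 h detection at room temperature). Stable human Y4 CHO clone, 5000 cells/well, incubated 30 min at room temperature with compounds plus forskolin and IBMX in PBS.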

T1 sequence (P50391 whole entry): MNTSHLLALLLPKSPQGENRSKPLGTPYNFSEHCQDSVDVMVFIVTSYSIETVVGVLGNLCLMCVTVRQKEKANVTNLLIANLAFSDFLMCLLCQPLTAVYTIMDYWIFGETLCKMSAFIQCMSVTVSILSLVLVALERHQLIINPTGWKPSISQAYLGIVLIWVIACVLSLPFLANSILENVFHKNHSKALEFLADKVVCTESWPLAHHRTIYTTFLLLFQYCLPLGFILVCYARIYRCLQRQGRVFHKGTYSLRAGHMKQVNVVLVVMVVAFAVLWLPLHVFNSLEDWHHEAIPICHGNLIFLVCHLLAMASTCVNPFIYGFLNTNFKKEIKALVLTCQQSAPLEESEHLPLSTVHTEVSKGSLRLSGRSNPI

| SMILES | EC50 [nM] |
| --- | --- |
| N#Cc1ccc(N2CCC[C@H](N[C@@H]3CCCC[C@H]3NC3=NOC(c4ccccc4)C3)C2)cc1 (stereo partly shown) [Example 230] | 378 |
| N#Cc1ccc(N2C[C@@H]3C[C@H](N[C@@H]4CCCC[C@H]4Nc4cc(-c5cccc(C(N)=O)c5)ccn4)[C@H]2C3)cc1 [Example 231] | 8 |
| N#Cc1ccc(N2C[C@@H]3C[C@H](N[C@@H]4CCCC[C@H]4Nc4cc(-c5ccccc5)ccn4)[C@H]2C3)cc1 [Example 232] | 37 |
| N#Cc1ccc(N2C[C@@H]3C[C@H](N[C@@H]4CCCC[C@H]4Nc4cc(Br)ccn4)[C@H]2C3)cc1 [Example 233] | 196 |
| C=C(C)c1ccnc(N[C@@H]2CCCC[C@H]2N[C@H]2CCCN(c3ccc(C#N)cc3)C2)c1 [Example 234] | 299 |
| N#Cc1ccc(N2CCC[C@H](N[C@@H]3CCCC[C@H]3Nc3cc(-c4cccc(S(N)(=O)=O)c4)ccn3)C2)cc1 [Example 236] | 40 |
| N#Cc1ccc(N2CCC[C@H](N[C@@H]3CCCC[C@H]3Nc3cc(-c4cccc(N)n4)ccn3)C2)cc1 [Example 237] | 9 |
| N#Cc1ccc(N2C[C@@H]3C[C@H](N[C@@H]4CCCC[C@H]4Nc4ncc(-c5ccc(C(N)=O)cc5)o4)[C@H]2C3)cc1 [Example 238] | 272 |
| N#Cc1ccc(N2CCC[C@H](N[C@@H]3CCCC[C@H]3Nc3cc(-c4ccc(N)cc4)ccn3)C2)cc1 [Example 239] | 290 |
| CN(C)c1cccc(-c2ccnc(N[C@@H]3CCCC[C@H]3N[C@H]3CCCN(c4ccc(C#N)cc4)C3)c2)c1 [Example 240] | 72 |
| N#Cc1ccc(N2CCC[C@H](N[C@@H]3CCCC[C@H]3Nc3cc(-c4ccccc4OC(F)(F)F)ccn3)C2)cc1 [Example 241] | 289 |
| CS(=O)(=O)Nc1cccc(-c2ccnc(N[C@@H]3CCCC[C@H]3N[C@H]3CCCN(c4ccc(C#N)cc4)C3)c2)c1 [Example 242] | 3 |
| CS(=O)(=O)NCc1ccc(-c2ccnc(N[C@@H]3CCCC[C@H]3N[C@H]3CCCN(c4ccc(C#N)cc4)C3)c2)cc1 [Example 243] | 602 |
| CC(=O)NCc1cccc(-c2ccnc(N[C@@H]3CCCC[C@H]3N[C@H]3CCCN(c4ccc(C#N)cc4)C3)c2)c1 [Example 244] | 7 |
| N#Cc1ccc(N2CCC[C@H](N[C@@H]3CCCC[C@H]3Nc3cc(Cc4ccccc4)ccn3)C2)cc1 [Example 245] | 299 |
| C=Cc1ccnc(N[C@@H]2CCCC[C@H]2N[C@H]2CCCN(c3ccc(C#N)cc3)C2)c1 [Example 246] | 379 |

| SMILES | EC50 [nM] |
| --- | --- |
| N#Cc1ccc(N2CCC[C@H](N[C@@H]3CCCC[C@H]3Nc3cc(-c4ccco4)ccn3)C2)cc1 [Example 247] | 15 |
| N#Cc1ccc(N2CCC[C@H](N[C@@H]3CCCC[C@H]3Nc3cc(-c4ccccc4Cl)ccn3)C2)cc1 [Example 248] | 557 |
| N#Cc1ccc(N2CCC[C@H](N[C@@H]3CCCC[C@H]3Nc3cc(-c4cccc(C(F)(F)F)c4)ccn3)C2)cc1 [Example 249] | 537 |
| N#Cc1ccc(N2CCC[C@H](N[C@@H]3CCCC[C@H]3Nc3cc(-c4cccc(Cl)c4)ccn3)C2)cc1 [Example 250] | 559 |
| CC(=O)Nc1cccc(-c2ccnc(N[C@@H]3CCCC[C@H]3N[C@H]3CCCN(c4ccc(C#N)cc4)C3)c2)c1 [Example 251] | 1 |
| CC(=O)c1ccccc1-c1ccnc(N[C@@H]2CCCC[C@H]2N[C@H]2CCCN(c3ccc(C#N)cc3)C2)c1 [Example 253] | 70 |
| CS(=O)(=O)c1cccc(-c2ccnc(N[C@@H]3CCCC[C@H]3N[C@H]3CCCN(c4ccc(C#N)cc4)C3)c2)c1 [Example 254] | 381 |
| CS(=O)(=O)c1ccc(-c2ccnc(N[C@@H]3CCCC[C@H]3N[C@H]3CCCN(c4ccc(C#N)cc4)C3)c2)cc1 [Example 255] | 922 |
| CC(=O)c1cccc(-c2ccnc(N[C@@H]3CCCC[C@H]3N[C@H]3CCCN(c4ccc(C#N)cc4)C3)c2)c1 [Example 257] | 100 |
| CC(C)(C)c1cccc(-c2ccnc(N[C@@H]3CCCC[C@H]3N[C@H]3CCCN(c4ccc(C#N)cc4)C3)c2)c1 [Example 259] | 59 |
| CC(C)(O)c1cccc(-c2ccnc(N[C@@H]3CCCC[C@H]3N[C@H]3CCCN(c4ccc(C#N)cc4)C3)c2)c1 [Example 260] | 11 |
| CNC(=O)c1cccc(-c2ccnc(N[C@@H]3CCCC[C@H]3N[C@H]3CCCN(c4ccc(C#N)cc4)C3)c2)c1 [Example 261] | 9 |
| COc1ccccc1-c1ccnc(N[C@@H]2CCCC[C@H]2N[C@H]2CCCN(c3ccc(C#N)cc3)C2)c1 [Example 262] | 116 |
| COc1cccc(-c2ccnc(N[C@@H]3CCCC[C@H]3N[C@H]3CCCN(c4ccc(C#N)cc4)C3)c2)c1 [Example 263] | 87 |
| N#Cc1ccc(N2C[C@@H]3C[C@H](N[C@@H]4CCCC[C@H]4Nc4ncc(-c5cccc(C(N)=O)c5)o4)[C@H]2C3)cc1 [Example 264] | 7 |
